In patent EP3056202A1, “BENZOPYRROLIDONE DERIVATIVES POSSESSING ANTIVIRAL AND ANTICANCER PROPERTIES” (Max-Planck-Gesellschaft zur Förderung der Wissenschaften …, priority 2015, dated 2016):
Values after ≈ are worked out from the molar mass of the structure shown.

Legend:
human Clk1 kinase = target: T1, human Clk1 kinase (Homo sapiens, UniProt P49759); test: In vitro Clk1 assay (IMAP fluorescence polarization); format: biochemical; details: 0.45 µM ATP
T1 construct: Each reaction consisted of 4 nM enzyme: Clk1 kinase domain
Protocol: The activity of the compounds described in the present invention can be determined by the following kinase assay, which measures the phosphorylation of a fluorescently-labeled peptide by human Clk1 kinase by fluorescent polarization using a commercially available IMAP Screening Express Assay Kit (Molecular Devices).
Clk1 kinase assays were performed in low protein binding 384-well plates (Corning). Test compounds were diluted in 100% DMSO to 5 mM stock concentration and then further dilutions were made in H2O or 100% DMSO to desirable concentrations.
Each reaction consisted of 4 nM enzyme: Clk1 kinase domain, 400 nM TAMRA-AFRREWSPGKEAKK-NH2 (Genecust), 0.45 µM ATP (Sigma) and kinase buffer: 20 mM TRIS pH 8, 1 mM DTT, 0.4 mM MgCl2, 0.4 mM MnCl2, 0.01 V/V% Tween20 (all reagents from Sigma-Aldrich)
(§1) For each reaction, 4 or 6 µl containing TAMRA-peptide, ATP and kinase buffer were combined with 2 µl diluted compound in H2O or 0.02 µl compound in 100% DMSO. The kinase reaction was started by the addition of 2 µl diluted enzyme. The reaction was allowed to run for 1 hour at room temperature. The reaction was stopped by adding 15 µl IMAP beads (1:600 beads in progressive (80 % buffer A, 20% buffer B) 1x buffer). After an additional hour, fluorescent polarization (Ex: 550-10 nm, Em: 590-10 nm, Dich: 561 nm) was measured using an Analyst GT (Molecular Devices).

physchem = format: physicochemical; details: kinetic from dmso stock
Protocol: Samples were diluted in DMSO (control), phosphate buffer pH = 7.4 and pH = 2.0, from 5mM stock solutions (solved in DMSO), with a 120 µM final concentration. The samples were incubated for 24 hours at room temperature followed by 30 minutes centrifugation at 3700 rpm. 40 µl of the supernatants were injected into HPLC (Waters 2795 Alliance HPLC equipped with Waters 996 PDA Detector (HPLC column: Waters XBridge, RP C18, 3.5 µm, 4.6 mm x 50 mm; gradient MeCN/H2O, containing 0.1% HCOOH: 5% MeCN (0.5 min), 5% to 95% MeCN (5 min), 95% MeCN (0.5 min); flow rate: 2.0 ml/min)) and the AUC values (measured on sample specific wavelength) of the buffered samples were divided by the AUC values (same wavelength as buffered samples') of the DMSO control samples. Table 3: Solubility in water for several compounds according to general formula (I)

human Akt1 kinase = human Akt1 kinase (Homo sapiens, UniProt P31749); test: In vitro Akt1 assay (IMAP fluorescence polarization, phosphorylation of TAMRA-peptide); format: biochemical; details: 40 µM ATP
Protocol: The inhibition of Akt1 by the compounds described in the present invention were determined measuring the phosphorylation of a fluorescently-labeled peptide (TAMRA-peptide) by human Akt1 kinase by fluorescent polarization using a commercially available IMAP Screening Express Assay Kit (Molecular Devices).
Akt1 kinase assays were performed in low protein binding 384-well plates (Corning). Test compounds were diluted in 100% DMSO to 5 mM stock concentration and then further dilutions were made in H2O or 100% DMSO to desirable concentrations.
Each reaction consisted of 5 nM enzyme: Akt1 kinase, 400 nM TAMRA-peptide (5-TAMRA-GRTGRRNSI-COOH; Genecust), 40 µM ATP and kinase buffer: 20 mM MES pH6, 1 mM DTT, 10 mM MgCl2, 2 mM MnCl2, 0.01 V/V% TritonX (all reagents from Sigma-Aldrich).
as §1, with “(1:400” for “(1:600”, “(75%” for “(80 %”, “25%” for “20%”

[1] = system: H1 N1 influenza virus strain A/WSN/33; test: microbe, parasite or virus in culture; format: cell-based; details: 36 h, read-out: Influenza replication IC50
[2] = system: A549 human lung carcinoma cells; test: Cell-based EC50 determination, A549 cells (CellTiter-Glo cell viability); details: A549, 24 h, read-out: A549 EC50 24h
Protocol: A549 human lung carcinoma cells were cultured in RPMI 1640 medium (Sigma) supplemented with 10% fetal bovine serum (Sigma) and Antibiotic-Antimycotic (Sigma) in tissue culture flasks at 37°C in a humidified 5% CO2 atmosphere. Cells were routinely assayed for mycoplasma contamination.
Two thousand cells were plated in 384-well tissue culture plates, and treated after 24 hours with a 10-point dilution series of the compounds (1.5 nM-30 uM), using the vehicle, DMSO as control. Cells were incubated for 24 hours after which the relative cell density was determined by CellTiter-Glo Luminescent Cell Viability Assay (Promega). This method determines the number of metabolically active cells in the culture based on quantitation of the ATP present. The luminescent signal was measured with an Analyst GT multimode reader (Molecular Devices). […]

[3] = system: HCT-116 human colon carcinoma cell line; test: In vitro growth inhibition of colon carcinoma cells, HCT-116 (CellTiter-Glo); format: cell-based; details: 72 hours incubation, read-out: HCT116 EC50
[4] = system: HKE3 human colon carcinoma cell line; test: In vitro growth inhibition of colon carcinoma cells, HKE3 (CellTiter-Glo); format: cell-based; details: 72 hours incubation
[5] = system: HepG2 hepatoblastomaderived cell line; test: In vitro growth inhibition, HepG2 (CellTiter-Glo); format: cell-based; details: Homo sapiens, 72 hours incubation

human Akt1 kinase, sequence (P31749 whole entry): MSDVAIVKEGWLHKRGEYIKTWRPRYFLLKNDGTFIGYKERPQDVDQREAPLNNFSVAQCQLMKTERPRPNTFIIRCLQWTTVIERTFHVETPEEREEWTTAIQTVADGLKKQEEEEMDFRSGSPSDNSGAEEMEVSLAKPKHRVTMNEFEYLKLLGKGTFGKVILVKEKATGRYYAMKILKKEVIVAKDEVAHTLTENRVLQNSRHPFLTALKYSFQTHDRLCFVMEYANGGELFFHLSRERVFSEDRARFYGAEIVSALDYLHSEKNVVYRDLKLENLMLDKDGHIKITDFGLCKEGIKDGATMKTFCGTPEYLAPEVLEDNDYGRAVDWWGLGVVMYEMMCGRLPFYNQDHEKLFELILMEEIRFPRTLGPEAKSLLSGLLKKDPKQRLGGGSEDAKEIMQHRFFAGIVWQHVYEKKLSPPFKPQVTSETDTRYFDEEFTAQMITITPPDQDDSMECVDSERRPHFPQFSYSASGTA
T1 sequence (P49759 161-477 limits assumed): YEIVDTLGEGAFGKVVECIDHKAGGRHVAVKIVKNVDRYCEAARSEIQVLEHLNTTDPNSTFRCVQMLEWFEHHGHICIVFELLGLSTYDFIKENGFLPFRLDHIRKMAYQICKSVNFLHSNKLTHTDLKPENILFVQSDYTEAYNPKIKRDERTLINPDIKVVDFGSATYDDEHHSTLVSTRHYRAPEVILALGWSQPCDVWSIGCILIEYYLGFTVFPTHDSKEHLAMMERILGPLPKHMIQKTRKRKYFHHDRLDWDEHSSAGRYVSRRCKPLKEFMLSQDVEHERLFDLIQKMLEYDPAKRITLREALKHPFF

SMILES | IC50 (human Clk1 kinase) [nM] | solubility at 24 h (physchem; pH 2, aqueous buffer) [µM] | solubility at 24 h (physchem; pH 7.4, aqueous buffer) [µM] | IC50 (human Akt1 kinase) [nM] | IC50 [1] [nM] | EC50 [2] [nM] | EC50 [3] [nM] | EC50 [4] [nM] | EC50 [5] [nM]
CC[C@H](NC(=O)c1ccc2c(c1)/C(=C(/Nc1ccc(CN3CCCCC3)cc1)c1ccccc1)C(=O)N2)c1ccccc1 [Compound 32, (3Z)-2-oxo-3-(phenyl{[4-(piperidin-1-ylmethyl)phenyl]amino}methylene)-N-[(1S)-1-phenylpropyl]indoline-5-carboxamide] | 100 | 110 to 120 (≈ 62.8 to 68.5 µg/mL) | < 10 | > 12500 | 10100 | 6380 | – | – | –
COc1cccc([C@@H](C)NC(=O)c2ccc3c(c2)/C(=C(/Nc2ccc(CN4CCN(C)CC4)cc2)c2ccccc2)C(=O)N3)c1 [Compound 35, (3Z)-N-[(1R)-1-(3-methoxyphenyl)ethyl]-3-[({4-[(4-methylpiperazin-1-yl)methyl]phenyl}amino)(phenyl)methylene]-2-oxoindoline-5-carboxamide] | 10 | 110 to 120 (≈ 66.2 to 72.2 µg/mL) | 10 to 20 (≈ 6.02 to 12 µg/mL) | 2510 | 20 | 4990 | 30 | 20 | 2120
C[C@@H](NC(=O)c1ccc2c(c1)/C(=C(/Nc1ccc(CN3CCN(C)CC3)cc1)c1ccccc1)C(=O)N2)c1cccc(Cl)c1 [Compound 36, (3Z)-N-[(1R)-1-(3-chlorophenyl)ethyl]-3-[({4-[(4-methylpiperazin-1-yl)methyl]phenyl}amino)(phenyl)methylene]-2-oxoindoline-5-carboxamide] | 20 | 100 to 110 (≈ 60.6 to 66.7 µg/mL) | < 10 | 330 | < 10 | 1770 | 20 | 20 | 640
CC[C@@H](NC(=O)c1ccc2c(c1)/C(=C(/Nc1ccc(CN3CCN(C)CC3)cc1)c1ccccc1)C(=O)N2)c1ccccc1 [Compound 37, (3Z)-3-[({4-[(4-methylpiperazin-1-yl)methyl]phenyl}amino)(phenyl)methylene]-2-oxo-N-[(1R)-1-phenylpropyl]indoline-5-carboxamide] | 10 | 110 to 120 (≈ 64.4 to 70.3 µg/mL) | < 10 | 2050 | < 10 | 2010 | 1 | < 1.52 | 360
C[C@@H](NC(=O)c1ccc2c(c1)/C(=C(/Nc1ccc(CN3CCN(C)CC3)cc1)c1ccccc1)C(=O)N2)c1ccccc1 [Compound 38, (3Z)-3-[({4-[(4-methylpiperazin-1-yl)methyl]phenyl}amino)(phenyl)methylene]-2-oxo-N-[(1R)-1-phenylethyl]indoline-5-carboxamide] | 10 | 110 to 120 (≈ 62.9 to 68.6 µg/mL) | 10 to 20 (≈ 5.72 to 11.4 µg/mL) | 1830 | < 10 | 3670 | 10 | 10 | 1120
COc1ccc(CNC(=O)c2ccc3c(c2)/C(=C(/Nc2ccc(CN4CCN(C)CC4)cc2)c2ccccc2)C(=O)N3)cc1OC [Compound 39, (3Z)-N-(3,4-dimethoxybenzyl)-3-[({4-[(4-methylpiperazin-1-yl)methyl]phenyl}amino)(phenyl)methylene]-2-oxoindoline-5-carboxamide] | 10 | 110 to 120 (≈ 68 to 74.1 µg/mL) | < 10 | 12300 | 100 | 18800 | 3800 | 2960 | 24200
COc1cccc(CNC(=O)c2ccc3c(c2)/C(=C(/Nc2ccc(CN4CCN(C)CC4)cc2)c2ccccc2)C(=O)N3)c1 [Compound 40, (3Z)-N-(3-methoxybenzyl)-3-[({4-[(4-methylpiperazin-1-yl)methyl]phenyl}amino)(phenyl)methylene]-2-oxoindoline-5-carboxamide] | 10 | 110 to 120 (≈ 64.6 to 70.5 µg/mL) | < 10 | 3400 | < 10 | 14600 | 110 | 80 | 10000
